The values below come from patent US5489600A, “Piperidyl amides, sulfonamides and sulfoxamides as inhibitors of cholesterol biosynthesis” (priority 1994, dated 1996).

Structures are written as SMILES.

For the experiment, the target named is T1, oxidosqualene cyclase (Rattus norvegicus, UniProt P48450).
T1 construct: Oxidosqualene cyclase is purified from rat liver microsomes; from tissue; host or cells: rat liver microsomes (lauryl maltoside solubilization, FPLC anion-exchange chromatography)
T1 sequence (P48450 1-733): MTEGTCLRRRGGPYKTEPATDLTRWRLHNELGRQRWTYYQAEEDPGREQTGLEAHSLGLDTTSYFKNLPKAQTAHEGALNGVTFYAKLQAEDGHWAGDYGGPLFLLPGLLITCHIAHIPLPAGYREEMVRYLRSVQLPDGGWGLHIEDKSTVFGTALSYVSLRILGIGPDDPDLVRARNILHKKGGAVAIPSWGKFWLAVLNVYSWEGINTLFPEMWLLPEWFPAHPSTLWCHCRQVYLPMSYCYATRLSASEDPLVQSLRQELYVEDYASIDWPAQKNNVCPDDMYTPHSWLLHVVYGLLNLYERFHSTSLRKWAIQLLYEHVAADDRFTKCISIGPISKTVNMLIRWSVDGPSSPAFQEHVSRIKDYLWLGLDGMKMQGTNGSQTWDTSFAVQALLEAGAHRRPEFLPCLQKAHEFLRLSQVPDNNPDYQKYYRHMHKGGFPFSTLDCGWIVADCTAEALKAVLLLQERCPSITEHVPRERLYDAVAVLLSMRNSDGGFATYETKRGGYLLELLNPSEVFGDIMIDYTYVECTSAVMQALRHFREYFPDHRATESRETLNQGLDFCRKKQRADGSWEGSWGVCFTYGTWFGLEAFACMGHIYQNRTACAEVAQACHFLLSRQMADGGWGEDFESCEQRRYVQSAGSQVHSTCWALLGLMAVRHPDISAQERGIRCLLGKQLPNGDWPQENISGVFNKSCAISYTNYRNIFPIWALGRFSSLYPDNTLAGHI
Nature of the experiment: Inhibition of Purified Oxidosqualene Cyclase (I10). Format: biochemical. The conditions noted are these: 10 μM test compound; oxidosqualene cyclase purified from rat liver microsomes; [3H]squalene monoepoxide 10 μM; pH 7.4. On the procedure:
Inhibition of Purified Oxidosqualene Cycloase (I10)
Oxidosqualene cyclase is purified from rat liver microsomes by the sequential methods of: 1) solubilization with the detergent lauryl maltoside and 2) FPLC anion-exchange chromatography. Compounds are tested to determine their ability to inhibit the conversion of squalene monoepoxide to lanosterol catalyzed by the purified oxidosqualene cyclase. The reaction mixture (final volume, 200 μL), contains potassium phosphate buffer (50 mM, pH 7.4), Na2 EDTA (500 μM), Tween (80 (0.1%), [3H]squalene monoepoxide (10 μM of the racemic mixture, 50 Ci/mol), test compound (10 μM) and purified oxidosqualene cyclase (50 μg). The reagents, prior to mixing are equilibrated at 37° C. for 10 minutes. The reaction is initiated by adding enzyme. The reaction is terminated by the addition of 5 mL of CHCl3 /MeOH (2:1, v/v), 0.8 mL of water and 10 μg each of squalene monoepoxide, squalene diepoxide, lanosterol and cholesterol. The organic layer is isolated and evaporated to dryness under nitrogen. The residue is dissolved in 200 μL of hexane/ethanol (99:1) and the sample is subjected to HPLC separation using a C18 reverse phase column eluted isocratically with 3.6% water in methanol. Radioactivity is quantitated using an in-line scintillation counter. Oxidosqualene cyclase activity is expressed as the percent inhibition of oxidosqualene cyclase activity at 10 μM test compound (I10 values).
Table 1 provides a summary of the testing data for the inhibition of oxidosqualene cyclase by compounds of formula (I) and formula (II).
For orientation: inhibition means the drop in the measured response relative to a control, in per cent. High values mean a response far below the control, low ones a response near the control. Molecule `CC(C)CCSCCCCC(=O)N1CCC(C(C)CO)CC1` (centres unmarked) [100,759, 1-(1-Oxopentyl-5-isopentylsulfide)-4-[(2-hydroxy-1-methyl)ethyl]piperidine] came in with an inhibition at 10 µM of 76%.
Regarding `CC(C)CCSCCCCC(=O)N1CCCCC1` [101,140, 1-(1-Oxopentyl-5-isopentylsulfide)piperidine], the inhibition at 10 µM is 38%.
In the case of `CC(CO)C1CCN(C(=O)CCCCSc2ccccc2)CC1` (centres unmarked) [101,550, 1-(1-Oxopentyl-5-phenylsulfide)-4-[(2-hydroxy-1-methyl)ethyl]piperidine] it was 82%; in that of `CCCCCCCCCCCC[S+]([O-])N1CCC(C(C)CO)CC1` (centres unmarked) [101,915, 1-(1-Sulfoxododecyl)-4-[(2-hydroxy-1-methyl)ethyl]piperidine], 46%.
In the case of `CCCCCCCCCCCCS(=O)(=O)N1CCC(C(C)CO)CC1` (centres unmarked) [102,055, 1-(1-Sulfonododecyl)-4[(2-hydroxy-1-methyl)ethyl]piperidine], testing at 10 µM gave an inhibition of 29%.
